Experimental findings from paper PMC6989399, “A drug library screen identifies Carbenoxolone as novel FOXO inhibitor that overcomes FOXO3-mediated chemoprotection in high-stage neuroblastoma” (Oncogene, 2019) are described below.

What is called Ki is a measure of affinity in units of concentration, obtained from inhibition or displacement. What is called Kd is the concentration at which binding is half-saturated.

In one series the target is FOXO6-DBD (Homo sapiens, UniProt A8MYZ6). In words: competitive fluorescence polarization (displacement of IRE-FAM oligonucleotide), […] CBX. The class given is binding. (In general: Polarisation of emitted light reports the rotation of a fluorescent probe.)
Chain of FOXO6-DBD (A8MYZ6 87-200): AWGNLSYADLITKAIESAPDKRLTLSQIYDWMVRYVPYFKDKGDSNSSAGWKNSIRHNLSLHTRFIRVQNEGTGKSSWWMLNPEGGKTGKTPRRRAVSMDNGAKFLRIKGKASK
Series [1] has as its target FOXO3-DBD (Homo sapiens, UniProt O43524). As to the kind of experiment: competitive fluorescence polarization (displacement of IRE-FAM oligonucleotide), confirmed by FAM-EMSA. The class given is binding.
Another series has as its target FOXO4-DBD (Homo sapiens, UniProt P98177). In words: competitive fluorescence polarization (displacement of IRE-FAM oligonucleotide), […] CBX. The format is binding.
The target in series [2] is T1, FOXO3-DBD (Homo sapiens, UniProt O43524 156-269). As to the kind of experiment: EMSA; 1 uM protein, 100 nM DNA; FPA: 200 mM Tris pH 7.5, 100 mM NaCl, 1 mM EDTA (BSA-precoated plates), 30 min RT (15 C, uncoated for FOXO1/3/4/6 comparison); FAM-EMSA: 20 mM Tris pH 7.5, 100. As to conditions: protein: recombinant; tags: N-terminal GST; His (GST-His-purified); blunt. On the technique in general: In EMSA bound probe runs differently from free probe, usually more slowly.
T1 sequence (O43524 156-269): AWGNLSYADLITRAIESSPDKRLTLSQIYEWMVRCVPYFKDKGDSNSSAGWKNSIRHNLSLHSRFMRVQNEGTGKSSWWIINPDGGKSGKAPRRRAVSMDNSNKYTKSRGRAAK

Series [3] has as its target T1, FOXO3-DBD. In words: fluorescence polarization; 5 nM IRE-FAM, 1-350 nM protein; FPA: 200 mM Tris pH 7.5, 100 mM NaCl, 1 mM EDTA (BSA-precoated plates), 30 min RT (15 C, uncoated for FOXO1/3/4/6 comparison); FAM-EMSA: 20 mM Tris pH 7.5, 100. Particulars: protein: recombinant; tags: N-terminal GST; His (GST-His-purified); blunt.

Chain of FOXO3-DBD (Homo sapiens, UniProt O43524) (O43524 156-269): as above
Chain of FOXO4-DBD (P98177 82-207): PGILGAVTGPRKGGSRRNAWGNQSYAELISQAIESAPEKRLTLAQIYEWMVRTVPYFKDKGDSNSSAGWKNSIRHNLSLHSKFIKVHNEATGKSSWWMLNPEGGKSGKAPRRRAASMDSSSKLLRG

As to `CC1(C)[C@@H](OC(=O)CCC(=O)O)CC[C@]2(C)[C@H]3C(=O)C=C4[C@@H]5C[C@@](C)(C(=O)O)CC[C@]5(C)CC[C@@]4(C)[C@]3(C)CC[C@@H]12` [CBX, Carbenoxolone], the “competitive fluorescence polarization (displacement of IRE-FAM oligonucleotide),” value was “CBX binds in addition to the FOXO3-DBD, also the FOXO1-DBD, the FOXO4-DBD, as well as the FOXO6-DBD” at FOXO6-DBD and “CBX binds in addition to the FOXO3-DBD, also the FOXO1-DBD, the FOXO4-DBD, as well as the FOXO6-DBD” on FOXO4-DBD. For the same molecule, the inhibition constant Ki at FOXO3-DBD [1] was determined as 19 µM.

B1: FoxP3-FAM (dsDNA)
DNA 1: AGCAAAGTTGTTTTTGATAATG
DNA 2: CATTATCAAAAACAACTTTGCT
For B1, the binding result with FOXO3-DBD [2] is on record as “binds”.

B2: IRE-FAM (dsDNA)
DNA 1: CTATCAAAACAACGC
DNA 2: GCGTTGTTTTGATAG
With B2, in the series with FOXO3-DBD [3], the Kd came to 0.0534 µM.
